Assays:
[1] = system: JNK; assay: Western blot, JNK activation (phosphorylation of JNK) in glioma cells; format: cell-based, human; conditions: erlotinib; patient derived neurospheres and established GBM cell lines
Method: Western blot analysis was performed according to standard protocols.

[2] = system: AP-1 transcriptional activity; assay: AP-1 luciferase reporter assay; format: cell-based, human; conditions: erlotinib 1 μM, 24 h; GBM9 and U87EGFRwt cells
Method: Cells were plated in 48 well dishes to 70%-80% confluence followed by with […] or 3xAP1pGL3 reporter plasmid using lipofectamine 2000. A dual-luciferase reporter assay system was used according to manufacturer's instructions (Promega, Madison WI). Firefly luciferase activity was measured in a luminometer and normalized on the basis of Renilla luciferase activity. Experiments were done in triplicate and 3 independent experiments were done.

[3] = system: GBM9 cells; assay: Annexin-FACS assay and Caspase 3/7 activation; format: cell-based, human; conditions: Annexin V flow cytometry and Caspase 3/7 activation
Method: Annexin assay was performed by using Annexin—V-FLUOS Staining kit (Roche applied Science). Cells (1×10^6) were plated in 6 well plates and treated with drugs or vehicle alone. After 72 hours cells were trypsinized and washed 2 times with 1×PBS. The cells were incubated for 15 minutes at room temperature with Propidium Iodide and Annexin—V-FLUOS labeling solution in incubation buffer. Annexin and/or PI positive cells were detected by Flow Cytometry.
Caspase activity in the supernatant was measured using the Caspase-Glo 3/7 Assay (Promega, G8091) following manufacturer's instructions. Briefly, 72 hours after treatments, cells were washed by cold PBS and total cell lysates were prepared. 50 μg of total protein per sample was added per well of a 96 well plate and was incubated with 100 μl Caspase 3/7 reagent for 30 minutes. The luminescence of each sample was measured using a luminometer. All experiments included at least 3 replicates per group and were repeated 3 times.

[4] = system: GBM9 cells; assay: Cell proliferation by cell counting (trypan blue dye exclusion); format: cell-based, human; conditions: 72 hours
Method: FIG. 15A GBM9 cells were plated in 6 well plated and treated with drugs as indicated. Cell proliferation was measured through cell counting using the trypan blue dye exclusion test. […] Erlotinib vs erlotinib+SP: P=0.0016, t=7.60, d.f.=4; Erlotinib vs erlotinib+U: P=0.0012, t=8.24, d.f.=4.

[5] = system: TNF; assay: TNF ELISA on GBM9 xenograft tumor extracts; format: in vivo, mice
Method: (§1) To detect the in vivo levels of TNF, 1×10^6 GBM9 cells were injected into the right flanks of nude mice. When the subcutaneous tumor reached a volume of around 200 mm^3, the mice were treated with erlotinib to monitor the upregulation of TNF protein. The animals were dosed consecutively for 1, 2, 7 or 14 days and then sacrificed. The animals without treatment were considered as control (0-day treatment). Tumor tissues were rinsed in PBS and protein was extracted to analyze the TNF levels using ELISA and also used for western blot. To detect the protein expression in mice brain tumor tissues upon drug treatment, the same procedure was performed in orthotopic models. Additionally, with orthotopic models, mice were divided into four groups (control gavage group, erlotinib group, thalidomide group and erlotinib plus thalidomide, n=3). After 48 hours treatment tumors were harvested and subjected to Western blot and immunostaining.

[6] = system: JNK, Axl and ERK; assay: Signal transduction in subcutaneous GBM9 tumors; format: in vivo, mice
Method: as §1

[7] = system: JNK-Axl-ERK signaling axis; assay: Signal transduction in intracranial GBM9 tumors (Western blot, IHC); format: in vivo, mice; conditions: thalidomide given with erlotinib
Method: as §1
Tumors from nude mice brains were fixed in 10% formalin and embedded in paraffin. Paraffin-embedded sections were cut at five-micrometer thickness. Immunohistochemical staining was performed using the ABC streptavidin-biotin method with the Vectastain ABC kit (Vector Laboratories, Burlingame, CA, USA) according to the manufacturer's protocol. Briefly, after deparaffinization and rehydration, endogenous peroxidase activity was quenched by a 10 min incubation in 3% H2O2. For antigen retrieval, the tissue sections were boiled in 10 mM sodium citrate buffer (pH 6.0) for 20 minutes. Binding of primary anti-pERK (1:100, Cell Signaling Technology, 4376) or anti-pJNK antibody (1:200, Cell signaling Technology, 4668) or anti-pAXL(1:400, R&D, AF2228) was carried out overnight at 4° C. The signal was detected by using the Sigmafast 3,3′-Diaminobenzidine tablets (DAB; Sigma, St. Louis MO). The sections were counterstained lightly with hematoxylin. The IHC staining intensity was scored semiquantitatively as: 0=No positive staining; 1=1-25% tumor cells stained, 2=26%-75% tumor cells stained and 3=>75% tumor cells stained.

[8] = system: GBM9 subcutaneous tumors; assay: Subcutaneous GBM9 xenograft tumor growth; format: in vivo, athymic nude mice; conditions: erlotinib 50 mg/kg oral gavage, SP600125 40 mg/kg i.p., thalidomide 150 mg/kg i.p., daily for 10 days
Method: 4 to 6 weeks old female athymic nude mice were purchased from Charles River Laboratories. The mice were housed in plastic cages (4-5 mice per cage) in a room with a 12 hour day-night cycle. 1×10^6 GBM9 cells were subcutaneously injected into the right flank of each nude mouse. […] The mice were randomly divided into control and treatment groups, mice were treated with drugs using the indicated doses. For combination treatment, both drugs were given concurrently for indicated periods. Tumor dimensions were measured by caliper every two days and tumor volumes calculated by the formula: volume=length×width×width/2. Mice were sacrificed when tumors reached over […] or 24 days from the first day of treatment.

[9] = system: Axl; assay: Western blot, Axl activation (pAxl) in glioma cells; conditions: erlotinib 48 h; patient derived GBM neurospheres and all cell lines examined
Method: Western blot analysis was performed according to standard protocols. In all experiments, before the addition of EGF or erlotinib established cells were cultured overnight in serum free DMEM and primary GBM neurospheres were EGF starved overnight. Cells not treated with EGF or erlotinib were also serum or EGF starved. EGFR (06-847, 1 μg/ml) antibody was from Millipore. pEGFR-1068 (2236), pERK (4376) ERK (4695), p34 (9251), JNK (9252), STAT3(9139), pAkt (0915) and pSTAT3 (9131) antibodies were from Cell Signaling Technology (Danvers, MA) were used a 1/1000 dilution; TNFR1 (sc-8436), ERK2 (sc-154). Akt (sc-1619), and β-Actin (sc-47778) were from Santa Cruz Biotechnology (Dallas, TX) were used at a concentration of 1 μg/ml. GAS6 (AF885), pAxl (AF2228) and Axl (AF154) were from R&D Biosystems (Minneapolis, MN) were used at a concentration of 1 μg/ml c-JUN antibody (ab31419) was from Abcam (Cambridge, MA) and was used at 2 μg per chromatin IP reaction.

`C#Cc1cccc(Nc2ncnc3cc(OCCOC)c(OCCOC)cc23)c1` [erlotinib] was tested, and the “JNK activation (phosphorylation of JNK)” value [1] was “activation of INK”, the AP-1 reporter activity [2] was “increased activity of the AP-1 reporter” and the “Mode of cell death, erlotinib combined with Axl, JNK, ERK or TNF inhibition” value [3] was “apoptotic cell death”. The “Cell growth / cell numbers, combination with erlotinib” value [4] was “significant decreases in cell numbers”, the “TNF level in subcutaneous mouse tumors” value ([5]; GBM9 flank tumors, erlotinib 50 mg/kg) was “increase in TNF can be detected 1 day after administration of erlotinib” and the “Time to upregulation of TNF in GBM xenograft tumors” value ([5]; erlotinib) was “about 24 hours”. For the same compound, the “Time at which JNK-ERK-Axl activation subsides in GBM xenograft tumors” value ([6]; erlotinib) was “about 2 weeks”, the “Erlotinib induced activation of JNK, Axl and ERK in mouse tumors” value ([6]; subcutaneous GBM9 tumors, erlotinib 50 mg/kg) was “peaking around 2-7 days and subsiding by 14 days” and the “JNK-Axl-ERK signaling axis in intracranial tumors (Western blot)” value ([7]; erlotinib 50 mg/kg) was “Activation of the JNK-Axl-ERK signaling axis can be detected in intracranial tumors”. The “pAxl, pJNK and pERK immunostaining of brain sections” value ([7]; orthotopic model) was “higher expression of pAxl, pJNK and pERK compared to vehicle group”, the “Growth of subcutaneous tumors” value [8] was “no significant effect on the growth of tumors” and the Axl phosphorylation [9] was “phosphorylation of the RTK Axl”.
